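Method: 48-hour compound exposure of cells in 96-well plates, five concentrations, linear interpolation of endpoints. GI50 is the concentration that inhibits growth by half.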 Calls of active or inactive are those of the source. No stated cut-off is given here; in the data, active = GI50 up to about 1.1 µM and inactive = higher.
What was measured:
Test in all cases: growth of human tumour cells (NCI), 48 h
[1] = test system: Malme-3M
[2] = test system: HCT-15
[3] = test system: NCI-H23
[4] = test system: LOX IMVI
[5] = test system: HCC 2998
[6] = test system: RPMI-8226
[7] = test system: HOP-92
[8] = test system: CCRF-CEM
[9] = test system: HT-29
[10] = test system: CAKI-1
[11] = test system: SW-620
[12] = test system: T47D
[13] = test system: MDA-MB-435
[14] = test system: IGROV-1
[15] = test system: SK-MEL-2
[16] = test system: SF-295
[17] = test system: SK-OV-3
[18] = test system: SNB-19
[19] = test system: SNB-75
[20] = test system: COLO 205
[21] = test system: MOLT-4
[22] = test system: MCF7
[23] = test system: UO-31
[24] = test system: OVCAR-5
[25] = test system: U-251
[26] = test system: ACHN
[27] = test system: SK-MEL-5
[28] = test system: M14
[29] = test system: MDA-MB-231
[30] = test system: OVCAR-3
[31] = test system: MDA-N
[32] = test system: TK-10
[33] = test system: HCT-116
[34] = test system: DU-145
[35] = test system: BT-549
[36] = test system: OVCAR-8
[37] = test system: Hs-578T
[38] = test system: KM12
[39] = test system: NCI-H460
[40] = test system: SN12C
[41] = test system: NCI-H226
[42] = test system: PC-3
[43] = test system: UACC-257
[44] = test system: HL-60
[45] = test system: SK-MEL-28
[46] = test system: SF-268
[47] = test system: UACC-62
[48] = test system: HOP-62
[49] = test system: NCI/ADR-RES
[50] = test system: A549
[51] = test system: SF-539
[52] = test system: 786-0
[53] = test system: SR
[54] = test system: NCI-H522
[55] = test system: OVCAR-4

Which results are given for `COC(=O)CCc1ccc2c(c1)CCC2`?
GI50 [1]: > 100 µM (inactive); GI50 [2]: > 100 µM; GI50 [3]: > 100 µM (inactive); GI50 [4]: > 100 µM (inactive); GI50 [5]: > 100 µM (inactive); GI50 [6]: > 100 µM (inactive); GI50 [7]: 15.1 µM (inactive); GI50 [8]: > 100 µM (inactive); GI50 [9]: > 100 µM (inactive); GI50 [10]: > 100 µM (inactive); GI50 [11]: > 100 µM (inactive); GI50 [12]: > 100 µM (inactive); GI50 [13]: > 100 µM (inactive); GI50 [14]: > 100 µM (inactive); GI50 [15]: > 100 µM (inactive); GI50 [16]: > 100 µM (inactive); GI50 [17]: > 100 µM (inactive); GI50 [18]: > 100 µM (inactive); GI50 [19]: > 100 µM (inactive); GI50 [20]: > 100 µM (inactive); GI50 [21]: > 100 µM (inactive); GI50 [22]: > 100 µM (inactive); GI50 [23]: > 100 µM (inactive); GI50 [24]: > 100 µM (inactive); GI50 [25]: > 100 µM (inactive); GI50 [26]: > 100 µM (inactive); GI50 [27]: > 100 µM (inactive); GI50 [28]: > 100 µM (inactive); GI50 [29]: > 100 µM (inactive); GI50 [30]: > 100 µM (inactive); GI50 [31]: > 100 µM (inactive); GI50 [32]: > 100 µM (inactive); GI50 [33]: > 100 µM (inactive); GI50 [34]: > 100 µM (inactive); GI50 [35]: > 100 µM (inactive); GI50 [36]: > 100 µM (inactive); GI50 [37]: > 100 µM (inactive); GI50 [38]: > 100 µM (inactive); GI50 [39]: > 100 µM (inactive); GI50 [40]: > 100 µM (inactive); GI50 [41]: > 100 µM (inactive); GI50 [42]: > 100 µM (inactive); GI50 [43]: > 100 µM (inactive); GI50 [44]: > 100 µM (inactive); GI50 [45]: > 100 µM (inactive); GI50 [46]: > 100 µM (inactive); GI50 [47]: > 100 µM (inactive); GI50 [48]: > 100 µM (inactive); GI50 [49]: > 100 µM (inactive); GI50 [50]: > 100 µM (inactive); GI50 [51]: > 100 µM (inactive); GI50 [52]: > 100 µM (inactive); GI50 [53]: > 100 µM (inactive); GI50 [54]: > 100 µM (inactive); GI50 [55]: > 100 µM (inactive)
